A word on the MIC: it is the least concentration at which growth counts as inhibited. Read a low MIC as a more susceptible organism. What is called IC50 is the point on the concentration scale where inhibition reaches its midpoint. High values mean lower potency, low ones higher potency.

The structures appear in SMILES notation. Converted amounts (≈) assume the structure as drawn.

For one test, the system named is Candida albicans. Briefly: Antimicrobial activity against Candida albicans ATCC 10231. Format: functional.
The target in a further test is Isocitrate lyase (Candida albicans, UniProt Q9P8Q7). Briefly: Inhibition of Candida albicans isocitrate lyase.
Isocitrate lyase, sequence (Q9P8Q7 whole entry): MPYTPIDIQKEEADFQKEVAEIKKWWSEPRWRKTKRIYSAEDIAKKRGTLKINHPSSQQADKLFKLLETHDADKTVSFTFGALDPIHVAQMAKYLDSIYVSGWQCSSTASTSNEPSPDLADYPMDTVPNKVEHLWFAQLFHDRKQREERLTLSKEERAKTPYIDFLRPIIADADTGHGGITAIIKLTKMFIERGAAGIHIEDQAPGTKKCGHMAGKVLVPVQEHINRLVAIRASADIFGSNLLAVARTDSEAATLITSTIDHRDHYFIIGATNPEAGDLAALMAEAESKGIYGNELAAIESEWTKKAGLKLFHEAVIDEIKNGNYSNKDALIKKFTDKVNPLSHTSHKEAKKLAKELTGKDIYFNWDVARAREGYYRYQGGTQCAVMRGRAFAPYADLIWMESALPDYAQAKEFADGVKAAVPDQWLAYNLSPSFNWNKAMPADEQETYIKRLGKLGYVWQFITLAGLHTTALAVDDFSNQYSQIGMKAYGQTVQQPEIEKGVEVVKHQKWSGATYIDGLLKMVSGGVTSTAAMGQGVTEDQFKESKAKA

Regarding `COC(=O)c1c[nH]c2ccc(O)cc12`, in the test on Candida albicans, the minimal inhibitory concentration (MIC) was greater than 1050 µM. For the same compound, the IC50 on Isocitrate lyase turned out to be 800 µM. On to `O=C(CO)c1c[nH]c2ccc(O)cc12` [HYRTIOSIN A], for which the minimum inhibitory concentration (MIC) against Candida albicans was greater than 1050 µM. This compound registered an IC50 at Isocitrate lyase of 318 µM.

For `O=C(C(=O)c1c[nH]c2ccc(O)cc12)c1c[nH]c2ccc(O)cc12` [HYRTIOSIN B], the minimum inhibitory concentration (MIC) with Candida albicans was greater than 624 µM. Moreover, the half-maximal inhibitory concentration (IC50) on Isocitrate lyase worked out at 89 µM.

On to `C[C@@H]1[C@H](O)[C@@H](C)/C=C/C=C/C=C/C=C/C=C/C=C/C=C/[C@H](O[C@@H]2O[C@H](C)[C@@H](O)[C@H](N)[C@@H]2O)C[C@@H]2O[C@](O)(C[C@@H](O)C[C@@H](O)[C@H](O)CC[C@@H](O)C[C@@H](O)CC(=O)O[C@H]1C)C[C@H](O)[C@H]2C(=O)O` [AMPHOTERICIN B], for which the MIC with Candida albicans was found to be 1.7 µM (≈ 1.57 µg/mL). Compound `O=C(O)CC[N+](=O)[O-]` displayed a minimum inhibitory concentration (MIC) in the test with Candida albicans greater than 1690 µM. `NCCc1c[nH]c2ccc(O)cc12` [SEROTONIN] had an MIC in the test with Candida albicans greater than 1130 µM. The compound further showed an IC50 against Isocitrate lyase of 301 µM.

`O=C1NCCc2c1[nH]c1ccc(O)cc21` registered a minimal inhibitory concentration (MIC) against Candida albicans greater than 989 µM. The same compound displayed an IC50 against Isocitrate lyase greater than 989 µM. Turning to `O=C(O)C1=NCCc2c1[nH]c1ccc(O)cc21`, the MIC against Candida albicans is greater than 869 µM. This compound yielded an IC50 at Isocitrate lyase of 380 µM. Turning to `O=Cc1c[nH]c2ccc(O)cc12`, in the test with Candida albicans, the minimal inhibitory concentration (MIC) is greater than 1020 µM. For the same compound, the midpoint of inhibition on Isocitrate lyase, the IC50, lay at 247 µM.

The values above are taken from ChEMBL document CHEMBL1152712, “5-Hydroxyindole-type alkaloids, as Candida albicans isocitrate lyase inhibitors, from the tropical sponge Hyrtios sp” (Bioorg Med Chem Lett, 2009).
